# Results taken from patent publication US10195186B2.
# Experiments:
# [1] = target: human sortilin (S-18 cells) (Homo sapiens (Human), UniProt Q99523); assay: Endogenous PGRN endocytosis assay (PGRN ELISA of media); type: cell-based; conditions: PGRN allowed to accumulate 24 hrs, compounds added day 2, further 24 hrs
# Procedure: Stable cell lines expressing human sortilin (S-18) were generated by transfecting HEK293 cells with a human sortilin expression vector, followed by few rounds of passage with the appropriate selection agent.
# On day1, S-18 cells are seeded in a 96 well plate. After 24 hrs, media is completely replaced with either media or one of the test compounds. All compounds were tested at 10 μM unless otherwise specified. Media is collected on day 3 and analyzed using PGRN ELISA (R&D). Cell viability is assessed by Cell TiterGlo (ProMega) to evaluate cytotoxic effect of the compounds.
# On day 2, the compounds are added to the cells and incubated for a further 24 hrs, when the media is harvested and PGRN levels analyzed using ELISA kit.
# hSortilin = hSortilin (Homo sapiens (Human), UniProt Q99523); assay: hSortilin affinity assay: displacement of 3H-neurotensin binding, SPA format; conditions: read-out: hSortilin NTS Binding, Inhibition at 50 μM
# Chain of hSortilin (Q99523 34-755): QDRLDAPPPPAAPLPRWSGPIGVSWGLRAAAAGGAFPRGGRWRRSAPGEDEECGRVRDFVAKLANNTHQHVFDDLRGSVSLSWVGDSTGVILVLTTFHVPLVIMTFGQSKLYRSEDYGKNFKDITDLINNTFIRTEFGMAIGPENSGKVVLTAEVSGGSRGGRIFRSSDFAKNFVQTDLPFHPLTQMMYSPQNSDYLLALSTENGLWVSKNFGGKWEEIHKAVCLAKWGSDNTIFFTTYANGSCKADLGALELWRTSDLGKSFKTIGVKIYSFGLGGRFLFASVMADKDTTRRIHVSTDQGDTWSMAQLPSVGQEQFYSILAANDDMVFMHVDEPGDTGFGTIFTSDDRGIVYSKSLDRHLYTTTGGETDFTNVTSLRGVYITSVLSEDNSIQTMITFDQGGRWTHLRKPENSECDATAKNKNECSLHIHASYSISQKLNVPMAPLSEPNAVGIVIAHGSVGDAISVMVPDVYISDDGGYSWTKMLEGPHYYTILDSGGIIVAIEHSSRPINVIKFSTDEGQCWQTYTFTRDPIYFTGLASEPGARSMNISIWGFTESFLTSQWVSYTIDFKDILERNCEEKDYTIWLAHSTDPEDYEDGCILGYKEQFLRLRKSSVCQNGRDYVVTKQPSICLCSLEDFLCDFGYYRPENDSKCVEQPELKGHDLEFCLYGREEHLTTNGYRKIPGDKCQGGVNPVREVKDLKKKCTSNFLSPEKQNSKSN
# Chain of human sortilin (S-18 cells) (Q99523 78-831): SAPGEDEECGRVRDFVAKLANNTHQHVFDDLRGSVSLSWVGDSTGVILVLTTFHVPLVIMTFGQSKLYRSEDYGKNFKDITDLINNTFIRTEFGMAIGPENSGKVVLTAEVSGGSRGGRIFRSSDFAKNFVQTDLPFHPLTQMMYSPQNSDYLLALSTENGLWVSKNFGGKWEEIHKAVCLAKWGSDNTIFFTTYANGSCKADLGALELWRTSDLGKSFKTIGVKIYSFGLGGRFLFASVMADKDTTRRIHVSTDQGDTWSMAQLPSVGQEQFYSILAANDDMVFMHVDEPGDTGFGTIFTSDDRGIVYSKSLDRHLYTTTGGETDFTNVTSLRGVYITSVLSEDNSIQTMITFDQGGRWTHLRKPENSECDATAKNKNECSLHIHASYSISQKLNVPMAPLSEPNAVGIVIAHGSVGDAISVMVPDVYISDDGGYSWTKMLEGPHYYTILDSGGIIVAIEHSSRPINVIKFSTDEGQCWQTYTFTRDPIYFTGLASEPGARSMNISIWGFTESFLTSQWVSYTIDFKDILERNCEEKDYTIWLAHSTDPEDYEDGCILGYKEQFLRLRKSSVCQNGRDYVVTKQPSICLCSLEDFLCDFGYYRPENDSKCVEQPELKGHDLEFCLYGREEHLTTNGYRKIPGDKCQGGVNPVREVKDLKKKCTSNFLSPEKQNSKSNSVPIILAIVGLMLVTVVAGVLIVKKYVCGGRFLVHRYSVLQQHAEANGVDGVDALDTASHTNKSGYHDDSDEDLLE
inhibition at 50 µM (hSortilin) [%],Compound,"PGRN levels in cell culture media, competition paradigm (FIG. 1) [1]"
–,"Cc1cccc(NC(=O)c2ccc(C(F)(F)F)cc2C(=O)O)n1 [Example 1, N-(6-Methyl-pyridin-2-yl)-5-trifluoromethyl-phthalamic acid]",increase in PGRN levels
64,"Cc1cccnc1NC(=O)c1ccc(Br)cc1C(=O)O [Example 27, 5-Bromo-N-(3-methyl-pyridin-2-yl)-phthalamic acid]",–
70,"Cc1ccc(NC(=O)c2ccc(Br)cc2C(=O)O)cn1 [Example 31, 5-Bromo-N-(6-methyl-pyridin-3-yl)-phthalamic acid]",–
–,"scrambled neurotensin: scrambled neurotensin, sequence LIYPRNEYELRKP (SEQ ID NO:1); does not bind sortilin, negative control (Scrambled Human Neurotensin) [reference compound]",did not have any effect
